Results published in patent US8765666B2, “Adenovirus dodecahedron particles for delivery of pharmaceutical agents” (Instytut Bio chemii i Biofizki PAN, priority 2009, dated 2014).
Counter-ions that a name gives are not always drawn.

Tested on: HeLa cells
Assay: MTT cytotoxicity test
Conditions: results not shown
Procedure: In the test, the ability of live cells to reduce the soluble yellow tetrazolium salt (MTT) to blue formazan crystals is used. […] After 3 hours, foetal bovine serum was added to a final concentration of 10%. After various incubation times at 37° C., the incubation medium was removed and 100 μL EMEM containing 0.5 mg/mL MTT (Sigma) was added. The plates were incubated according to the manufacturer's instructions; optical density measurements were carried out using an HTi reader (Biotek, VT Winooski, USA). The number of live cells was calculated according to the protocol (Mosmann, 1983).

Structure (SMILES): Cc1c(N)nc(C(CC(N)=O)NCC(N)C(N)=O)nc1C(=O)NC(C(=O)NC(C)C(O)C(C)C(=O)NC(C(=O)NCCc1nc(-c2nc(C(=O)NCCCNCCCCN)cs2)cs1)C(C)O)C(OC1OC(CO)C(O)C(O)C1OC1OC(CO)C(O)C(OC(N)=O)C1O)c1c[nH]cn1 (stereo not shown) [BLM, Bleomycin A5 hydrochloride]
- free BLM concentration giving cell mortality similar to Dd-BLM: 8 µM
